{"source": "paper PMC9297664", "about": "“Cationic peptide carriers enable long-term delivery of insulin-like growth factor-1 to suppress osteoarthritis-induced matrix degradation” (Arthritis Research & Therapy, 2022)", "key": {"[1]": {"tested_on": "IL-1α treated cartilage explants", "experiment": "GAG loss from cartilage (DMMB), IL-1α-challenged explant culture post-traumatic OA model", "format": "cell-based, bovine", "settings": "IL-1α 2 ng/mL", "description": "(§1) Media was collected and changed every 2 days and IL-1α was replenished with each media change. […] IL-1α is chosen for this in-vitro post-traumatic (PTOA) model as it is elevated during the inflammatory phase following an injury and causes degradation of aggrecans, collagens, inhibits proteoglycan synthesis, and alters chondrocyte viability. 2 ng/mL concentration was chosen as it represents a moderately aggressive cytokine treatment.\nAfter 16 days of culture, the cartilage explants were weighed and digested using Proteinase-K solution in Tris buffer at pH 8. The cumulative GAG released to the media and the residual GAG content in the digested tissue explants was measured using DMMB assay. The GAG content was expressed as a percentage of the total GAG content (in media + residual GAG in the digested explant)."}, "[2]": {"design": "method as in 3 sources, ref 37 = [37]; PMID 24470361; doi:10.1002/art.38357; 37. Loffredo FS Pancoast JR Cai L Vannelli T Dong JZ Lee RT Targeted delivery to cartilage is critical for in vivo efficacy of insulin-like growth factor 1 in a rat model of osteoarthritis Arthritis R ||| ref 42 = [42]; PMID 20722014; doi:10.1002/art.27709; 42. Miller RE Grodzinsky AJ Cummings K Plaas AHK Cole AA Lee RT Intraarticular injection of heparin-binding insulin-like growth factor 1 sustains delivery of insulin-like growth factor 1 to cartilage ||| ref 43 = [43]; PMID 30487252; doi:10.1126/scitranslmed.aat8800; 43. Geiger BC Wang S Padera RF Grodzinsky AJ Hammond PT Cartilage-penetrating nanocarriers improve delivery and efficacy of growth factor treatment of osteoarthritis Sci Transl Med 2018 10 eaat8800 10", "settings": "cited from earlier work; for Detection in cartilage samples: rat cartilage, 6 days post-IA injection"}, "[3]": {"tested_on": "IL-1α treated cartilage explants", "experiment": "Cellular metabolism in cartilage explants (AlamarBlue)", "format": "cell-based, bovine", "settings": "IL-1α 2 ng/mL, days 8 and 16", "description": "as §1\nOn days 8 and 16 of culture, cellular metabolism in cartilage explants was determined by measuring the metabolic oxidation activity by using AlamarBlue assay. Briefly, cartilage explants were individually incubated with media containing 1× resazurin sodium salt for 3 h in the dark at 37 °C and 5% CO2. Cell metabolic activity was estimated by measuring fluorescence at 530 nm excitation and 590 nm emission wavelengths using a microplate reader (Synergy H1, Biotek)."}, "endplate chondrocytes": {"tested_on": "endplate chondrocytes", "settings": "IGF-1 administration; cited from earlier work"}, "[4]": {"tested_on": "chondrocytes in IL-1α treated cartilage explants", "experiment": "Chondrocyte viability in cartilage (FDA/PI live-dead staining)", "format": "cell-based, bovine", "settings": "IL-1α 2 ng/mL, days 8 and 16", "description": "as §1\nOn days 8 and 16 of culture, 100 μm thick slices were cut from the center of cartilage disks as described before. Cartilage slices were stained with FDA (4 mg/ml in PBS) and PI ([…] in PBS) for 5 min. FDA stained viable cells green and PI stained the non-viable cells red. Slices were washed with PBS and imaged using a fluorescence microscope (Nikon Eclipse TS2R) at 4× objective. The viable and non-viable cell images were overlaid using ImageJ."}, "[5]": {"tested_on": "human OA cartilage explants", "design": "method as in PMID 18050312", "settings": "cited from earlier work"}, "[6]": {"experiment": "Depth of penetration, 1-D transport chamber, confocal imaging, absorption then desorption", "format": "in vitro ADME, bovine", "description": "The chamber was placed in a covered petri dish with DI water inside an incubator at 37 °C under gentle shaking. After 24 h, a 100 μm slice was cut from the center of the explant and imaged using a confocal microscope (Zeiss LSM 800). Cy5 (red channel) was excited 640 nm laser and FITC (green channel) was excited using a 488 nm laser. Z-stacks of images from both channels were obtained and maximum intensity along the z-axis was projected. The intensity across the thickness to represent the penetration concentration profile was plotted along a straight line from the superficial to deep zone using FIJI."}, "[7]": {"tested_on": "IL-1α treated cartilage explants", "experiment": "Nitrite release from cartilage to medium (Griess assay)", "format": "cell-based, bovine", "settings": "IL-1α 2 ng/mL; for Nitrite production: days 2, 8 and 16", "description": "as §1\nNitrite content was measured using the Griess assay as a marker of nitric oxide (NO) release from cartilage into the medium. Equal volumes of Griess reagent and culture media collected every two days were mixed and incubated at room temperature for 15 min, and absorbance at 540 nm was measured using a microplate reader (Synergy H1, Biotek). Sodium nitrite solution in DMEM was used as a standard to convert absorbance readings to nitrite content in the sample medium."}, "[8]": {"tested_on": "IL-1 and TNF-α challenged cartilage", "settings": "cited from earlier work", "from_the_text": "Media was collected and changed every 2 days and IL-1α was replenished with each media change."}, "rat knee joints": {"tested_on": "rat knee joints", "settings": "post-IA injection in ACL transected (ACLT) rat knee joints, compared to free IGF-1; cited from earlier work", "from_the_text": "The high negative FCD of cartilage resulting from the negatively charged GAGs provides a unique opportunity to make drug cartilage penetrating using cationic carriers."}, "[9]": {"settings": "single dose 1000 ng/ml IGF-1 (S), free or as conjugate"}}, "note": "Entries after “also recorded” stand apart in the source; their conditions may differ."}
{"substance": "IGF-1: Human recombinant insulin-like growth factor-1, ~7.6 kDa pro-anabolic growth factor (PeproTech)", "values": [{"measurement": "GAG loss to media", "setting": "[1]; continuous dose 100 ng/ml (C), replenished every 2 days, 16-day culture", "value": "keep the GAG loss levels down to control levels"}, {"measurement": "GAG loss to media", "setting": "[1]; single dose 100 ng/ml (S), first 2 days only, day 2", "value": "significantly inhibited GAG loss by day 2"}, {"measurement": "Cumulative GAG loss to media", "setting": "[1]; single dose 1000 ng/ml IGF-1 (S), free or as conjugate, 16-day culture", "value": "remained ineffective in providing a prolonged effect"}, {"measurement": "Retention in cartilage / joint tissues", "setting": "[2]; 24 h post-IA injection in rats", "value": "no free IGF-1 was detectable in any joint tissues"}, {"measurement": "Retention in cartilage", "setting": "[2]; 2 days post-IA injection in rat knees", "value": "no retention of free IGF-1 was observed in cartilage"}, {"measurement": "Detection in cartilage samples", "setting": "[2]", "value": "no trace of free IGF-1 was detectable"}, {"measurement": "Chondrocyte metabolic activity", "setting": "[3]; continuous dose 100 ng/ml (C)", "value": "match the response from the untreated control condition"}, {"measurement": "Chondrocyte metabolic activity", "setting": "[3]; single dose 100 ng/ml (S)", "value": "not effective in rescuing chondrocyte metabolic activity or viability"}, {"measurement": "Chondrocyte metabolic activity", "setting": "[3]; [9]", "value": "failed to rescue the reduced cell metabolism and viability over the long-term; also recorded: ineffective in rescuing the reduced metabolic rate"}, {"measurement": "Decrease of MMP-13 expression", "setting": "endplate chondrocytes", "value": 50, "unit": "%"}, {"measurement": "Chondrocyte viability", "setting": "[4]; continuous dose 100 ng/ml (C)", "value": "match the response from the untreated control condition"}, {"measurement": "Chondrocyte viability", "setting": "[4]; single dose 100 ng/ml (S)", "value": "not effective in rescuing chondrocyte metabolic activity or viability"}, {"measurement": "Chondrocyte viability", "setting": "[4]; [9]", "value": "failed to rescue the reduced cell metabolism and viability over the long-term; also recorded: not effective"}, {"measurement": "Increase of proteoglycan synthesis", "setting": "[5]; 3 ng/ml IGF-1, milder degree of OA explants (MANKIN score 4)", "value": 1.8, "unit": "fold"}, {"measurement": "Enhancement of proteoglycan synthesis", "setting": "[5]; 30 ng/ml IGF-1, advanced OA cartilage explants (MANKIN score 8)", "value": 2.6, "unit": "fold"}, {"measurement": "Depth of penetration from superficial to deep zone", "setting": "[6]", "value": "penetrated through the full thickness of cartilage"}, {"measurement": "Retention in cartilage after desorption", "setting": "[6]", "value": "most of the free IGF-1 desorbed out of the cartilage"}, {"measurement": "Time for desorption out of the cartilage", "setting": "[6]", "value": "≤ 24", "unit": "h"}, {"measurement": "Cumulative nitrite levels", "setting": "[7]; continuous dose 100 ng/ml (C), 16 days", "value": "significantly suppressed the IL-1-induced cumulative nitrite levels"}, {"measurement": "Nitrite production", "setting": "[7]; single dose 100 ng/ml (S)", "value": "suppressed nitrite production only on day 2"}, {"measurement": "Nitrite production", "setting": "[7]; [9]", "value": "suppressed nitrite production only on day 2"}, {"measurement": "Saturating concentration for suppression of GAG loss", "setting": "[8]; IL-1 and TNF-α challenged cartilage culture models, multiple dosing", "value": 100, "unit": "ng/mL"}, {"measurement": "Concentration at which the therapeutic effect saturates (suppression of IL-1α-induced catabolic activity)", "setting": "[8]; similar cartilage explant culture model", "value": 100, "unit": "ng/mL"}]}
{"substance": "PAMAM-IGF-1: IGF-1 carried by polyamidoamine (PAMAM) dendrimer cationic nanoparticles (Gen 6, 58 kDa) [reference compound]", "values": [{"measurement": "Detection in cartilage samples", "setting": "[2]", "value": "detected"}, {"measurement": "Duration of bioavailability of IGF-1 in the knee joint space", "setting": "[2]; rat knee joint space post-IA injection", "value": 30.4, "unit": "days"}, {"measurement": "Matrix degradation and osteophyte formation", "setting": "rat knee joints", "value": "significantly suppressed matrix degradation and osteophyte formation"}]}
